Source: patent US12447167B2, “GM-CSF-producing t-cell control agent and Th1/Th2 immune balance regulator” (National Center of Neurology and Psychiatry, priority 2014, dated 2025)

Test system: GM-CSF-producing CD8-positive T-cells
Experiment: GM-CSF-producing CD8-positive T-cells in PBMCs of normal subjects after single oral dose (FACS)
Assay type: in vivo, human
Method: A single dose of compound 31, which is a synthetic glycolipid of the present invention, described in the first aspect, i.e., (2S,3S,4R)-1-O-(α-D-galactosyl)-2-(N-tetracosanoylamino)-1,3,4-nonanetriol represented by the following formula (III), was orally administered to each of subjects of 4 cohorts (A, B, C, and D cohorts) each consisting of 3 normal subjects shown in Table 1 above after obtainment of informed consent.
The dose was set to 0.3 mg per person for A cohort, 1 mg per person for B cohort, 3 mg per person for C cohort, and 10 mg per person for D cohort.
Subsequently, T-cell subfractions were prepared from the peripheral blood of each subject by using the density gradient centrifugation method. First, a total of 20 mL of blood was collected from the vein of each subject 24 hours (1st day), 48 hours (2nd day), 72 hours (3rd day), and 168 hours (7th day) after the administration of compound 31 by using two 10-mL heparin sodium-containing vacuum blood collection tubes. For a control, 20 mL of blood was similarly collected from the vein of each subject one day before the administration of compound 31.
Next, 4 mL of Ficoll-Paque Plus (GE Healthcare Biosciences Corp.) was placed in each of four 15-mL conical tubes, and 10 mL of blood diluted twice with phosphate buffered saline (PBS) was gently layered thereon. Then, density gradient centrifugation was performed by centrifugation at 1800 rpm at ordinary temperature for 30 minutes. After the centrifugation, a supernatant containing plasma and platelet was discarded, and lymphocytes present at the boundary layer between the supernatant layer and the Ficoll-Paque Plus layer were recovered into a fresh 50-mL conical tube. The 50-mL conical tube was filled by adding PBS thereto, followed by centrifugation at 1800 rpm at ordinary temperature for 5 minutes. […] After a supernatant was removed by suction again, a single cell suspension was prepared by adding 1 mL of AIM-V medium (Life Technologies Corp.), and then, the number of cells was measured with a counting chamber. […]

Compound: CCCCCCCCCCCCCCCCCCCCCCCC(=O)NC(COC1OC(CO)C(O)C(O)C1O)[C@H](O)C(O)CCCCC (stereo in doubt) [compound 31, (2S,3S,4R)-1-O-(α-D-galactosyl)-2-(N-tetracosanoylamino)-1,3,4-nonanetriol]
- suppressive effects on CD8-positive T-cells (A cohort (0.3 mg), 7 days after administration): strengthened
- growth of CD8-positive T-cells (C cohort (3 mg), 1 day after administration): transiently promoted
- proportion of CD8-positive T-cells (GM-CSF-producing) in PBMCs (single oral dose, all cohorts, after administration vs day-1): decreased
